Reference: the NIST ThermoML archive (doi:10.1021/je900064e)
“And” between values parts separate entries of the source, which are not always exact repeats. Identical values can stand only once. ± gives the expanded uncertainty stated by the source.

Assays:
[1] = 101.33 kPa, Liquid; for speed of sound: Sing-around technique in a fixed-path interferometer
[2] = φn = volume fraction of the nth substance listed; conditions: 101 kPa, Liquid, φ1 = 0.5

**Q.** For `OCCN(CCO)CCO` [triethanolamine], which mass density ([1]; 288.15 K) is on record?
**A.** 1126.19 ± 2.2 kg/m3

**Q.** And the speed of sound ([1]; 288.15 K)?
**A.** 1631.1 ± 3.4 m/s

**Q.** And the mass density ([1]; 293.15 K)?
**A.** 1123.42 ± 2.1 kg/m3

**Q.** What about the speed of sound ([1]; 293.15 K) of the same compound?
**A.** 1623.9 ± 3.3 m/s

**Q.** What about the mass density ([1]; 298.15 K) of the same compound?
**A.** 1120.99 ± 2.1 kg/m3

**Q.** What about the speed of sound ([1]; 298.15 K) of the same compound?
**A.** 1614.5 ± 3.3 m/s

**Q.** And the mass density ([1]; 303.15 K)?
**A.** 1118.21 ± 2.1 kg/m3

**Q.** And the speed of sound ([1]; 303.15 K)?
**A.** 1604.5 ± 3.3 m/s

**Q.** And the mass density ([1]; 308.15 K)?
**A.** 1115.38 ± 2.1 kg/m3

**Q.** What about the speed of sound ([1]; 308.15 K) of the same compound?
**A.** 1595.5 ± 3.3 m/s

**Q.** What about the mass density ([1]; 313.15 K) of the same compound?
**A.** 1112.57 ± 2.1 kg/m3

**Q.** What about the speed of sound ([1]; 313.15 K) of the same compound?
**A.** 1587 ± 3.3 m/s

**Q.** What about the mass density ([1]; 318.15 K) of the same compound?
**A.** 1109.78 ± 2.1 kg/m3

**Q.** And the speed of sound ([1]; 318.15 K)?
**A.** 1578.8 ± 3.3 m/s

**Q.** What about the mass density ([1]; 323.15 K) of the same compound?
**A.** 1106.93 ± 2 kg/m3

**Q.** What about the speed of sound ([1]; 323.15 K) of the same compound?
**A.** 1570.6 ± 3.3 m/s

**Q.** For `CCO` [ethanol] + O, which mass density ([2]; 288.15 K) is on record?
**A.** 930.86 ± 0.7 kg/m3

**Q.** And the speed of sound ([2]; 288.15 K)?
**A.** 1546.7 ± 3.2 m/s

**Q.** And the mass density ([2]; 293.15 K)?
**A.** 927.08 ± 0.71 kg/m3

**Q.** And the speed of sound ([2]; 293.15 K)?
**A.** 1534.1 ± 3.2 m/s

**Q.** What about the mass density ([2]; 298.15 K) of the same compound?
**A.** 923.22 ± 0.72 kg/m3

**Q.** And the speed of sound ([2]; 298.15 K)?
**A.** 1521.1 ± 3.2 m/s

**Q.** And the mass density ([2]; 303.15 K)?
**A.** 919.31 ± 0.73 kg/m3

**Q.** And the speed of sound ([2]; 303.15 K)?
**A.** 1507.9 ± 3.2 m/s

**Q.** What about the mass density ([2]; 308.15 K) of the same compound?
**A.** 915.32 ± 0.74 kg/m3

**Q.** And the speed of sound ([2]; 308.15 K)?
**A.** 1494.5 ± 3.2 m/s

**Q.** What about the mass density ([2]; 313.15 K) of the same compound?
**A.** 911.27 ± 0.75 kg/m3

**Q.** And the speed of sound ([2]; 313.15 K)?
**A.** 1480.9 ± 3.2 m/s

**Q.** And the mass density ([2]; 318.15 K)?
**A.** 908.03 ± 0.76 kg/m3 and 907.3 ± 0.76 kg/m3

**Q.** And the speed of sound ([2]; 318.15 K)?
**A.** 1467 ± 3.1 m/s

**Q.** And the mass density ([2]; 323.15 K)?
**A.** 904.32 ± 0.77 kg/m3 and 903.71 ± 0.77 kg/m3

**Q.** What about the speed of sound ([2]; 323.15 K) of the same compound?
**A.** 1452.9 ± 3.1 m/s

**Q.** What does the source list for `CN(CCO)CCO` [N-methyldiethanolamine]?
**A.** speed of sound ([1]; 288.15 K): 1598.8 ± 3.3 m/s; mass density ([1]; 288.15 K, Vibrating tube method): 1044.32 ± 1.2 kg/m3; speed of sound ([1]; 293.15 K): 1583.1 ± 3.3 m/s; mass density ([1]; 293.15 K, Vibrating tube method): 1040.59 ± 1.2 kg/m3; speed of sound ([1]; 298.15 K): 1564.1 ± 3.3 m/s; mass density ([1]; 298.15 K, Vibrating tube method): 1036.79 ± 1.2 kg/m3; speed of sound ([1]; 303.15 K): 1546 ± 3.2 m/s; mass density ([1]; 303.15 K, Vibrating tube method): 1033.06 ± 1.2 kg/m3; speed of sound ([1]; 308.15 K): 1531 ± 3.2 m/s; mass density ([1]; 308.15 K, Vibrating tube method): 1029.26 ± 1.2 kg/m3; speed of sound ([1]; 313.15 K): 1516.1 ± 3.2 m/s; mass density ([1]; 313.15 K, Vibrating tube method): 1025.45 ± 1.1 kg/m3; speed of sound ([1]; 318.15 K): 1503.2 ± 3.2 m/s; mass density ([1]; 318.15 K, Vibrating tube method): 1021.62 ± 1.1 kg/m3; speed of sound ([1]; 323.15 K): 1490.4 ± 3.2 m/s; mass density ([1]; 323.15 K, Vibrating tube method): 1018.22 ± 1.1 kg/m3
